Assay results as given in PubChem BioAssay (NCI).
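Exposure lasted 48 hours, with cells grown in 96-well plates and compounds tested at five concentrations. Here, GI50 denotes the concentration required for 50% inhibition of growth. The concentration for full growth arrest is given as TGI.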

Legend:
Assay in all cases: NCI-60 cell line screen, 48 h
NCI/ADR-RES ovarian = system: NCI/ADR-RES ovarian
A549 NSCLC = system: A549 NSCLC
DU-145 prostate = system: DU-145 prostate
SK-MEL-5 melanoma = system: SK-MEL-5 melanoma
NCI-H226 lung = system: NCI-H226 lung
SF-295 CNS = system: SF-295 CNS
UO-31 renal = system: UO-31 renal
PC-3 prostate = system: PC-3 prostate
SK-MEL-28 melanoma = system: SK-MEL-28 melanoma
SR leukemia = system: SR leukemia

Compound | GI50 (NCI/ADR-RES ovarian) | TGI (NCI/ADR-RES ovarian) | GI50 (A549 NSCLC) | TGI (A549 NSCLC) | GI50 (DU-145 prostate) | TGI (DU-145 prostate) | GI50 (SK-MEL-5 melanoma) | TGI (SK-MEL-5 melanoma) | GI50 (NCI-H226 lung) | TGI (NCI-H226 lung) | GI50 (SF-295 CNS) | TGI (SF-295 CNS) | GI50 (UO-31 renal) | TGI (UO-31 renal) | GI50 (PC-3 prostate) | TGI (PC-3 prostate) | GI50 (SK-MEL-28 melanoma) | TGI (SK-MEL-28 melanoma) | GI50 (SR leukemia) | TGI (SR leukemia)
C1=C(c2ccccc2)C(c2ccc(OCCN3CCCCC3)cc2)Oc2ccccc21 (stereo not given) | 2.4 µM | 8.16 µM | 2.19 µM | 4.76 µM | 2.73 µM | 9.12 µM | 1.78 µM | 3.16 µM | 4.08 µM | 16.7 µM | 1.72 µM | 3.29 µM | 1.41 µM | 3.16 µM | 1.79 µM | 3.25 µM | 1.18 µM | 2.54 µM | 1.93 µM | 3.94 µM
O=C(Nc1cccc(O)c1)c1cccc(NC2=C(Cl)C(=O)N(Cc3ccccc3)C2=O)c1 | 19.7 µM | 37 µM | 18.8 µM | 48.3 µM | 3.61 µM | 16 µM | 6.09 µM | 20.1 µM | 18.7 µM | 44.4 µM | 6.39 µM | 21.3 µM | 6.61 µM | 21.7 µM | 8.29 µM | 25 µM | 16.9 µM | 36.3 µM | 0.315 µM | 3.36 µM
CC(C)(C)[Si](C)(C)OCC1C=CC(n2cnc3c(N)ncnc32)O1 (stereo not given) | – | > 100 µM | – | > 100 µM | – | > 100 µM | – | 34.1 µM | – | > 69.6 µM | – | > 100 µM | – | > 100 µM | – | > 100 µM | – | > 100 µM | – | 60.8 µM
